Test results reported in patent publication US8563267B2, “Lycogen extract, composition thereof and method for the treatment using the same” (Asia-Pacific Beiotech Developing, Inc., priority 2010, dated 2013).

Columns and labels:
human lymphocytes = settings: protection of human lymphocytes from free radical NO2; cited from earlier work
[1] = test tube studies; cited from earlier work
type I procollagen = experiment: Type I procollagen level in Hs68 human fibroblasts (Western blotting); type: cell-based; settings: Hs68, without UV treatment, 24 hr; lycopene 0.1, 0.5, 10 μM; lycogen extract 1, 5, 10 μM
Protocol: The Hs68 human fibroblasts were treated with 20 J/cm^2 of UVA and then with 10, 25 and 50 μM of lycogen extract for 24 hr. The type I procollagen level was analyzed by using Western blotting analysis.
In addition, under condition without UV treatment, the Hs68 human fibroblasts were treated with 0.1, 0.5 and 10 μM lycopene (extracted from tomato) or 1, 5, 10 μM lycogen extract (extracted from photosynthetic bacteria of the present invention) for 24 hr. The type I procollagen level was analyzed by using Western blotting.

CC(C)=CCC/C(C)=C/C=C/C(C)=C/C=C/C(C)=C/C=C/C=C(C)/C=C/C=C(C)/C=C/C=C(\C)CCC=C(C)C [lycopene]
NO2 resistant effect relative to β-carotene (human lymphocytes): at least two times
efficiency of singlet-oxygen quenching action relative to vitamin E [1]: 100 times
promotion of collagen proliferation (type I procollagen level) (type I procollagen): unable to promote collagen proliferation
